Laboratory results published in patent US20250170116A1, “PHARMACEUTICAL COMPOSITION FOR PREVENTING AND/OR TREATING RENAL DISEASE” (priority 2022, published 2025).

Tests used:
[1] = tested on: rats with puromycin aminonucleoside-induced kidney injury (focal segmental glomerulosclerosis / minimal change nephrotic syndrome model rats); assay: Test Example 1: action of Compound 011 in rats with puromycin aminonucleoside-induced kidney injury; assay type: in vivo, S.D. rats; conditions: for urinary protein levels lower compared with PAN group: Bradford method
Method: Eight-week-old S.D. rats (male, 8 rats) were intraperitoneally injected with 120 mg/kg of puromycin aminonucleoside (PAN) under anesthesia (day 0). PAN damages glomerular basement membrane cells (podocytes) and induces glomerular injury in rats. The PAN-treated rats were focal segmental glomerulosclerosis model rats and minimal change nephrotic syndrome model rats. The test compound (Compound 011) was mixed with food and administered (10 mg/kg/day) on or after the third day after the PAN injection. The rats were kept under a 12-hour light-dark cycle (lights on from 7:00 am to 7:00 pm, and lights off from 7:00 pm to 7:00 am the next morning), and food and water were provided ad libitum (PAN+011 group). Urine was collected on day 0, i.e., the day of PAN administration, and on days 3, 10, 20, and 27 after PAN administration. Urine was collected by placing the rats in metabolic cages for 17 hours (5:00 pm to 10:00 am the next morning). Separately, as controls, a group without PAN treatment and without test compound administration (control group, male, 3 animals), a group without PAN treatment but with test compound administration (control+011 group, male, 5 animals), and a group with PAN treatment but without test compound administration (PAN group, male, 9 animals) were also tested in the same manner. The urinary protein levels were measured by using the Bradford method. The serum albumin levels were measured by using an improved BCP (bromocresol purple) method. In the PAN group, the number of serum samples was 8 because one animal from which a serum sample was unable to be collected was excluded. On day 27 after PAN administration, the left kidney of each rat was removed, the size was visually observed, and the weight was measured. The number of left kidney samples of the control group was 3 because the left kidneys of three animals in this group were all removed and weighed. The number of left kidney samples of the control+011 group was 4 because the left kidneys of 4 of the 5 animals in this group were removed and weighed. The number of left kidney samples of the PAN group was 7 because the left kidneys of 7 of the 9 animals in this group were removed and weighed. The number of left kidney samples of the PAN+011 group was 7 because the left kidneys of 7 of the 8 animals in this group were removed and weighed.

[2] = tested on: rats with puromycin aminonucleoside-induced kidney injury (focal segmental glomerulosclerosis model rats); assay: Test Example 3: action of Compound 011 in PAN-treated rats with more severe symptoms for a longer period; assay type: in vivo, S.D. rats
Method: The action of Compound 011 on PAN-treated rats with more severe symptoms for a longer period of time than in Test Example 1 was studied. Eight-week-old S.D. rats (male, 8 rats) were intraperitoneally injected with 120 mg/kg of puromycin aminonucleoside (PAN) under anesthesia. Then, one month later, PAN was again injected intraperitoneally at 60 mg/kg. PAN creates focal segmental glomerulosclerosis model rats by disrupting glomerular basement membrane cells (podocytes) (Kim, J Mol Med, 2018, 96, 631-644). Furthermore, these model rats are known to develop chronic kidney damage accompanied by lymphocyte and macrophage infiltration (Ornellas, Sci Rep, 2019, 9:19604). The test compound (Compound 011) was mixed with food and administered (10 mg/kg/day) on or after the third day after the PAN injection. The rats were kept under a 12-hour light-dark cycle (lights on from 7:00 am to 7:00 pm, and lights off from 7:00 pm to 7:00 am the next morning), and food and water were provided ad libitum (PAN+011 group). Chronic proteinuria may sometimes occur after the first administration of PAN without a second administration of PAN. […] Two months after the first administration of PAN, the kidneys of the rats were removed, their sizes were visually observed, and their weights were measured. The number of kidney samples was 4 for the PAN group and was 6 for the PAN+011 group. Subsequently, the kidneys were fixed with 4% paraformaldehyde/PBS and then paraffin-embedded, and sections were prepared. The sections were treated with PAS (periodic acid-Schiff) staining, and PAS-stained positive areas (inflammatory cell areas) were evaluated. To extract RNA, a portion of tissue around the surface layer of the kidney was quickly frozen to −80° C. cDNA was produced from RNA extracted from the tissue by reverse transcriptase, and gene expression was evaluated by real-time PCR. TB Green Premix Ex Taq II (Takara Bio Inc.) was used as a reagent for the reaction, and a QuantStudio 5 system (Thermo Fisher) was used for the analysis.

[3] = PAN+011 group vs PAN group, two months after PAN
[4] = PAN+011 group, after 2 months, 10 mg/kg/day mixed with food, *p<0.03

## O=C(O)c1cnc(N2CCN(c3noc4cccc(C(F)(F)F)c34)CC2)c(Cl)c1 [Compound 011, 5-Chloro-6-(4-(4-(trifluoromethyl)benzo[d]isoxazol-3-yl)piperazin-1-yl)nicotinic acid]
[1]; PAN+011 group vs PAN group, day 10 after PAN, 10 mg/kg/day mixed with food
  urinary protein levels lower compared with PAN group: 38%
[1]; PAN+011 group vs PAN group, day 27, improved BCP method, **p<0.01
  serum albumin levels: almost no PAN-treatment-induced decrease in serum albumin levels
[1]; PAN+011 group vs PAN group, day 27 after PAN
  left kidney weight per rat body weight: smaller increase in kidney weights
[1]; PAN+011 group vs PAN group, day 27 after PAN, 10 mg/kg/day mixed with food
  urinary protein levels lower compared with PAN group: 48%
[1]; rats without PAN treatment, 10 mg/kg/day mixed with food
  urinary protein levels, control+011 group vs control group: No difference
[2]; [3]
  CD4 expression level in kidney tissue (quantitative PCR, relative to GAPDH): significantly decreased
  CD86 expression level in kidney tissue (quantitative PCR, relative to GAPDH): significantly decreased
  TGF-β expression level in kidney tissue (quantitative PCR, relative to GAPDH): significantly decreased
[2]; [4]
  left kidney weight per rat body weight, decrease compared with PAN group: 29%
  right kidney weight, decrease compared with PAN group: 28%
[2]; kidney sections two months after PAN, on average
  suppression of formation of tertiary lymphoid tissue-like structures (PAS-stained positive area): ≥ 50%
